Experimental data reported in patent US8178668B2, “2-aminopyridine kinase inhibitors” (OSI Pharmaceuticals, LLC, priority 2008, dated 2012).
Where a name gives a salt, the structure may show the parent alone.

Experiments:
RON (human) = RON (human) (Homo sapiens, UniProt Q04912); experiment: RON kinase AlphaScreen assay (Km of ATP); format: biochemical; details: ATP at Km; at least duplicate experiments
Method in brief: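 AlphaScreen with PT66 donor/acceptor beads, read after 1 h, detected phosphorylation of biotinylated poly(Glu,Tyr) by human RON. Enzyme-started reactions ran 30 min at room temperature with ATP at Km. Buffer was HEPES pH 7.4 with MgCl2, glycerol, vanadate and 1% DMSO.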

MET (human) = MET (human) (Homo sapiens, UniProt P08581); experiment: MET kinase AlphaScreen assay (Km of ATP); format: biochemical; details: ATP at Km; at least duplicate experiments
Sequence of MET (human) (P08581 25-1390): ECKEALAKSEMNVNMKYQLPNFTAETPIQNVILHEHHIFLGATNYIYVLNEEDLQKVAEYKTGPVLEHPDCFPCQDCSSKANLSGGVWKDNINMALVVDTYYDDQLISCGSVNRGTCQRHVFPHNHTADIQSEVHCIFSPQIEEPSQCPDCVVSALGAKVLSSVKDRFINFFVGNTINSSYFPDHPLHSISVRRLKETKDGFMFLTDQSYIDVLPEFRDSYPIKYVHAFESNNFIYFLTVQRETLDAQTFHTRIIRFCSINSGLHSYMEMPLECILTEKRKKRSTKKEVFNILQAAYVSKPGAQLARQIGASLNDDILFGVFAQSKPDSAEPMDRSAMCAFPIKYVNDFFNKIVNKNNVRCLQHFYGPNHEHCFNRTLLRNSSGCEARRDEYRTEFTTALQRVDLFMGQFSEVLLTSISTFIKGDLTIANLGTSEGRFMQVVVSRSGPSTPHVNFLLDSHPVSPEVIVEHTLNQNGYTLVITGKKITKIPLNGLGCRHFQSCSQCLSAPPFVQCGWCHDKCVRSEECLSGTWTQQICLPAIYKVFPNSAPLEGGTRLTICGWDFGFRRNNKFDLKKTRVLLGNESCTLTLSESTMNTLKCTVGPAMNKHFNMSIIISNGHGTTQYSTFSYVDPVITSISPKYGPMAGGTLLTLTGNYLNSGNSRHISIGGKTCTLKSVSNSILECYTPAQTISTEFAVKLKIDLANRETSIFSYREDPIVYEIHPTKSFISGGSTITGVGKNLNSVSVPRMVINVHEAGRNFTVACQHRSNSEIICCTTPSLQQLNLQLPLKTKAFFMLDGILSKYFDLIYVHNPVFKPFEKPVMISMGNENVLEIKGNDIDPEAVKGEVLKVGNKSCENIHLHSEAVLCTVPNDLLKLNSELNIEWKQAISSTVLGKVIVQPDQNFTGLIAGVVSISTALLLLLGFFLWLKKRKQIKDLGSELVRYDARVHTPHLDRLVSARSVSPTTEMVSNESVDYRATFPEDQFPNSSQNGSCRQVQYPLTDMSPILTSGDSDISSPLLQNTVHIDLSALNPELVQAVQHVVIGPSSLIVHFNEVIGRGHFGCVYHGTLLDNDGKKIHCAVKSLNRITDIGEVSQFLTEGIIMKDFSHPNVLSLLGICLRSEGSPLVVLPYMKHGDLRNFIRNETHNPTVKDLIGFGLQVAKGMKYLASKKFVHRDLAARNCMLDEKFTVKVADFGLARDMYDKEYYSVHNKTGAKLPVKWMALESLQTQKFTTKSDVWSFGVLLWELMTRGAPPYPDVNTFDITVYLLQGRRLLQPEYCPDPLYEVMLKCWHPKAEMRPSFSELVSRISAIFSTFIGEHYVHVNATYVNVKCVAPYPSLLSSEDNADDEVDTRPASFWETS
Method in brief: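 AlphaScreen detection with PT66 beads (1 h) follows a 60 min room-temperature MET reaction. Substrate is 200 ng/μL biotinylated poly(Glu,Tyr), with ATP set at an enzyme-optimized concentration. Buffer is HEPES pH 7.4 with MgCl2, MnCl2 and 0.334 mM vanadate, compounds at 1% DMSO.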

Sequence of RON (human) (Q04912 25-1400): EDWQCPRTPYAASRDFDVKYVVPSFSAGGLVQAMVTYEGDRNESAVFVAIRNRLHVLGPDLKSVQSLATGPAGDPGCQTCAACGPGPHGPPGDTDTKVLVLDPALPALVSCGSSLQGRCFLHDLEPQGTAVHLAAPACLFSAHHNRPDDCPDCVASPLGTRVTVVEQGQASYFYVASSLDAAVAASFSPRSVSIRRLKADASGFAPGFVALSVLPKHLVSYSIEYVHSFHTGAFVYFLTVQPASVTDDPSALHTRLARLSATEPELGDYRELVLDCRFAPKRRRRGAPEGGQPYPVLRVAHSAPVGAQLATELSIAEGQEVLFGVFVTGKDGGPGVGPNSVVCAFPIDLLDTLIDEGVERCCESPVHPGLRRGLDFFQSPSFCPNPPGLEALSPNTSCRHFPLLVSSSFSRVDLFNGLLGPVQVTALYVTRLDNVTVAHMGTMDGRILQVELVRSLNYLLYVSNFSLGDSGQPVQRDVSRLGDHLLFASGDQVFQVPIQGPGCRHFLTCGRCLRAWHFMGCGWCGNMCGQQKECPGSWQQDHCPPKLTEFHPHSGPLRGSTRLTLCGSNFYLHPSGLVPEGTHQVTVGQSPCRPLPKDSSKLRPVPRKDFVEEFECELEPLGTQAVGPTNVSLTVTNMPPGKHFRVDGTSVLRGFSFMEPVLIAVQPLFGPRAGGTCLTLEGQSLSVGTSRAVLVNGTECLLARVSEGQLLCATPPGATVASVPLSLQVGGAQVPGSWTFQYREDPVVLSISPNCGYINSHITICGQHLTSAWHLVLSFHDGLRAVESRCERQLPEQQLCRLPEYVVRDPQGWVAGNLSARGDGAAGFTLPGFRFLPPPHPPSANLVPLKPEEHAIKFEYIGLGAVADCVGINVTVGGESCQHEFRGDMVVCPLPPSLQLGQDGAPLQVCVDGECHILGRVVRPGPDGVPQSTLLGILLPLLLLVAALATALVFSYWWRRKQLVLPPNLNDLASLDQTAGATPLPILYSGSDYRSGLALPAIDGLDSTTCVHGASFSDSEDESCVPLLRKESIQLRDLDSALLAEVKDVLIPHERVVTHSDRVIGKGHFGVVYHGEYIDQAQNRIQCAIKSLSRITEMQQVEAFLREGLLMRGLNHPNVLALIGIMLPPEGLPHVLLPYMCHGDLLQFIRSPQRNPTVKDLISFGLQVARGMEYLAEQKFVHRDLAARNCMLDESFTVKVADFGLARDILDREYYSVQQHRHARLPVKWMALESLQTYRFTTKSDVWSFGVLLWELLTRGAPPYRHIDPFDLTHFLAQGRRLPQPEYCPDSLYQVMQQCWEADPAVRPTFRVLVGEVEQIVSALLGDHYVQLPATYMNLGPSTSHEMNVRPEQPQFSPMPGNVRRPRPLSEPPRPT

| IC50 (RON (human)) [nM] | IC50 (MET (human)) [nM] | SMILES |
| --- | --- | --- |
| 1000 to 20000 | 1000 to 20000 | Nc1ncc(-c2cccc(C(=O)N[C@H]3CCCC[C@@H]3O)c2)cc1-c1nc2ccccc2s1 [Example 221, 3-(6-Amino-5-benzothiazol-2-ylpyridin-3-yl)-N-((1S,2S)-2-hydroxycyclohexyl)benzamide] |
| 1000 to 20000 | 1000 to 20000 | Nc1ncc(-c2cccc(C(=O)N3CCC(O)C3)c2)cc1-c1nc2ccccc2s1 (stereo not shown) [Example 222, [3-(6-Amino-5-benzothiazol-2-ylpyridin-3-yl)phenyl]-(3-hydroxypyrrolidin-1-yl)methanone] |
| 1000 to 20000 | 1000 to 20000 | Nc1ncc(-c2cccc(C(=O)NCCCn3ccnc3)c2)cc1-c1nc2ccccc2s1 [Example 223, 3-(6-Amino-5-benzothiazol-2-ylpyridin-3-yl)-N-(3-imidazol-1-ylpropyl)benzamide] |
| 1000 to 20000 | 100 to 1000 | CN(C)C1CCN(C(=O)c2cccc(-c3cnc(N)c(-c4nc5ccccc5s4)c3)c2)C1 (stereo not shown) [Example 224, [3-(6-Amino-5-benzothiazol-2-ylpyridin-3-yl)phenyl]-(3-dimethylaminopyrrolidin-1-yl)methanone] |
| 1000 to 20000 | 1000 to 20000 | Nc1ncc(-c2cccc(C(=O)NCCCN3CCOCC3)c2)cc1-c1nc2ccccc2s1 [Example 225, 3-(6-Amino-5-benzothiazol-2-ylpyridin-3-yl)-N-(3-morpholin-4-ylpropyl)benzamide] |
| 1000 to 20000 | 100 to 1000 | CN1CCCN(C(=O)c2cccc(-c3cnc(N)c(-c4nc5ccccc5s4)c3)c2)CC1 [Example 226, [3-(6-Amino-5-benzothiazol-2-ylpyridin-3-yl)phenyl]-(4-methyl-[1,4]diazepan-1-yl)methanone] |
| 1000 to 20000 | 1000 to 20000 | Nc1ncc(-c2cccc(C(=O)N3CCC(F)(F)C3)c2)cc1-c1nc2ccccc2s1 [Example 227, [3-(6-Amino-5-benzothiazol-2-ylpyridin-3-yl)phenyl]-(3,3-difluoropyrrolidin-1-yl)methanone] |
| 1000 to 20000 | 100 to 1000 | C[C@@H]1CN(C(=O)c2cccc(-c3cnc(N)c(-c4nc5ccccc5s4)c3)c2)C[C@H](C)N1C [Example 228, [3-(6-Amino-5-benzothiazol-2-ylpyridin-3-yl)phenyl]-(cis-3,4,5-trimethylpiperazin-1-yl)methanone] |
| 1000 to 20000 | 1000 to 20000 | Nc1ncc(-c2cc3ccccc3[nH]2)cc1-c1nc2ccccc2s1 [Example 229, 3-(1,3-Benzothiazol-2-yl)-5-(1H-indol-2-yl)pyridin-2-amine] |
| 1000 to 20000 | 1000 to 20000 | Nc1ncc(-c2ccc[nH]2)cc1-c1nc2ccccc2s1 [Example 230, 3-(1,3-Benzothiazol-2-yl)-5-(1H-pyrrol-2-yl)pyridin-2-amine] |
| 1000 to 20000 | 1000 to 20000 | CS(=O)(=O)Nc1ccc(-c2cnc(N)c(-c3nc4ccccc4s3)c2)cc1 [Example 231, N-4-[6-Amino-5-(1,3-benzothiazol-2-yl)pyridin-3-yl]phenylmethanesulfonamide] |
| > 20000 | 1000 to 20000 | Nc1ncc(-c2cccc(O)c2)cc1-c1nc2ccccc2s1 [Example 233, 3-[6-Amino-5-(1,3-benzothiazol-2-yl)pyridin-3-yl]phenol] |
| > 20000 | 1000 to 20000 | COC(=O)COc1cccc(-c2cnc(N)c(-c3nc4ccccc4s3)c2)c1 [Example 234, Methyl 3-[6-amino-5-(1,3-benzothiazol-2-yl)pyridin-3-yl]phenoxyacetate] |
| 1000 to 20000 | 1000 to 20000 | Nc1ncc(-c2cccc(OCC(=O)O)c2)cc1-c1nc2ccccc2s1 [Example 235, [3-(6-Amino-5-benzothiazol-2-yl-pyridin-3-yl)-phenoxy]acetic acid] |
| 1000 to 20000 | 1000 to 20000 | CCOC(=O)COc1ccc(-c2cnc(N)c(-c3nc4ccccc4s3)c2)cc1 [Example 236, Ethyl 4-[6-amino-5-(1,3-benzothiazol-2-yl)pyridin-3-yl]phenoxyacetate] |
| 1000 to 20000 | 100 to 1000 | Nc1ncc(-c2ccc(OCC(=O)O)cc2)cc1-c1nc2ccccc2s1 [Example 237, 4-[6-Amino-5-(1,3-benzothiazol-2-yl)pyridin-3-yl]phenoxyacetic acid] |
| 1000 to 20000 | 1000 to 20000 | CNC(=O)COc1ccc(-c2cnc(N)c(-c3nc4ccccc4s3)c2)cc1 [Example 238, 2-[4-(6-Amino-5-benzothiazol-2-ylpyridin-3-yl)-phenoxy]-N-methylacetamide] |

| IC50 (RON (human)) [nM] | IC50 (MET (human)) [nM] | SMILES |
| --- | --- | --- |
| 1000 to 20000 | 1000 to 20000 | CN(C)C(=O)COc1ccc(-c2cnc(N)c(-c3nc4ccccc4s3)c2)cc1 [Example 239, 2-[4-(6-Amino-5-benzothiazol-2-ylpyridin-3-yl)-phenoxy]-N,N-dimethylacetamide] |
| 1000 to 20000 | 1000 to 20000 | Nc1ncc(-c2ccc(OCC(=O)NCc3ccccc3)cc2)cc1-c1nc2ccccc2s1 [Example 240, 2-[4-(6-Amino-5-benzothiazol-2-ylpyridin-3-yl)-phenoxy]-N-benzylacetamide] |
| > 20000 | 1000 to 20000 | Nc1ncc(-c2ccc(OCC(=O)N3CCCC3)cc2)cc1-c1nc2ccccc2s1 [Example 241, 2-[4-(6-Amino-5-benzothiazol-2-ylpyridin-3-yl)phenoxy]-1-pyrrolidin-1-ylethanone] |
| 1000 to 20000 | 1000 to 20000 | Nc1ncc(-c2ccc(OCC(=O)NCCCN3CCCC3=O)cc2)cc1-c1nc2ccccc2s1 [Example 242, 2-[4-(6-Amino-5-benzothiazol-2-ylpyridin-3-yl)-phenoxy]-N-[3-(2-oxopyrrolidin-1-yl)-propyl]acetamide] |
| > 20000 | 1000 to 20000 | Nc1ncc(-c2ccc(OCC(=O)NC3CCCCC3O)cc2)cc1-c1nc2ccccc2s1 (stereo not shown) [Example 243, 2-[4-(6-Amino-5-benzothiazol-2-ylpyridin-3-yl)phenoxy]-N-(2-hydroxycyclohexyl)acetamide] |
| > 20000 | 1000 to 20000 | Nc1ncc(-c2ccc(OCC(=O)N3CCOCC3)cc2)cc1-c1nc2ccccc2s1 [Example 244, 2-[4-(6-Amino-5-benzothiazol-2-ylpyridin-3-yl)phenoxy]-1-morpholin-4-ylethanone] |
| > 20000 | 1000 to 20000 | Nc1ncc(-c2ccc(OCC(=O)NCC3CCCCC3)cc2)cc1-c1nc2ccccc2s1 [Example 245, 2-[4-(6-Amino-5-benzothiazol-2-ylpyridin-3-yl)phenoxy]-N-cyclohexylmethylacetamide] |
| 100 to 1000 | ≤ 100 | Nc1ncc(-c2cnn(C3CCNCC3)c2)cc1-c1nc2cccc(-c3cn[nH]c3)c2s1 [Example 247, 5-(1-Piperidin-4-yl-1H-pyrazol-4-yl)-3-[7-(1H-pyrazol-4-yl)benzothiazol-2-yl]pyridin-2-ylamine dihydrochloride] |
| 100 to 1000 | 100 to 1000 | Cn1cc(-c2cccc3nc(-c4cc(-c5cnn(C6CCNCC6)c5)cnc4N)sc23)cn1 [Example 248, 3-[7-(1-Methyl-1H-pyrazol-4-yl)benzothiazol-2-yl]-5-(1-piperidin-4-yl-1H-pyrazol-4-yl)pyridin-2-ylamine dihydrochloride] |
| 100 to 1000 | ≤ 100 | Nc1ncc(-c2cnn(C3CCNCC3)c2)cc1-c1nc2cccc(-c3ccc[nH]3)c2s1 [Example 249, 5-(1-Piperidin-4-yl-1H-pyrazol-4-yl)-3-[7-(1H-pyrrol-2-yl)benzothiazol-2-yl]pyridin-2-ylamine dihydrochloride] |
| 100 to 1000 | ≤ 100 | Nc1ncc(-c2cnn(C3CCNCC3)c2)cc1-c1nc2cccc(-c3cccnc3)c2s1 [Example 250, 5-(1-Piperidin-4-yl-1H-pyrazol-4-yl)-3-(7-pyridin-3-ylbenzothiazol-2-yl)pyridin-2-ylamine dihydrochloride] |
| 100 to 1000 | 100 to 1000 | Nc1ncc(-c2cnn(C3CCNCC3)c2)cc1-c1nc2cccc(-c3cc[nH]c3)c2s1 [Example 251, 5-(1-Piperidin-4-yl-1H-pyrazol-4-yl)-3-[7-(1H-pyrrol-3-yl)benzothiazol-2-yl]pyridin-2-ylamine trifluoroacetate] |
| 100 to 1000 | 100 to 1000 | Nc1ncc(-c2cnn(C3CCNCC3)c2)cc1-c1nc2ccc(F)cc2s1 [Example 252, 3-(6-Fluorobenzothiazol-2-yl)-5-(1-piperidin-4-yl-1H-pyrazol-4-yl)-pyridin-2-ylamine] |
| 100 to 1000 | 100 to 1000 | Nc1ncc(-c2cnn(C3CCNCC3)c2)cc1-c1nc2ccc(Cl)cc2s1 [Example 253, 3-(6-Chlorobenzothiazol-2-yl)-5-(1-piperidin-4-yl-1H-pyrazol-4-yl)-pyridin-2-ylamine] |
| 100 to 1000 | 100 to 1000 | Cc1ccc2nc(-c3cc(-c4cnn(C5CCNCC5)c4)cnc3N)sc2c1 [Example 254, 3-(6-Methylbenzothiazol-2-yl)-5-(1-piperidin-4-yl-1H-pyrazol-4-yl)-pyridin-2-ylamine] |
| 100 to 1000 | 100 to 1000 | COc1ccc2nc(-c3cc(-c4cnn(C5CCNCC5)c4)cnc3N)sc2c1 [Example 255, 3-(6-Methoxybenzothiazol-2-yl)-5-(1-piperidin-4-yl-1H-pyrazol-4-yl)-pyridin-2-ylamine] |

| SMILES | IC50 (RON (human)) [nM] | IC50 (MET (human)) [nM] |
| --- | --- | --- |
| Nc1ncc(C2=CCNCC2)cc1-c1nc2ccccc2s1 [Example 232, 5-(1,3-Benzothiazol-2-yl)-1′,2′,3′,6′-tetrahydro-3,4′-bipyridin-6-amine] | 1000 to 20000 | 100 to 1000 |
| Nc1ncc(-c2ccc(OCC(=O)N3CCN(CCO)CC3)cc2)cc1-c1nc2ccccc2s1 [Example 246, 2-[4-(6-Amino-5-benzothiazol-2-yl-pyridin-3-yl)phenoxy]-1-[4-(2-hydroxyethyl)piperazin-1-yl]ethanone] | 1000 to 20000 | 100 to 1000 |
